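Growth conditions: 96-well plates. Treatment: test compound, 48 hours, 5 concentrations. Analysis: linear interpolation between bracketing concentrations; unreached endpoints set to highest concentration. Abbreviation: GI50, concentration required for 50% inhibition of growth. TGI: total growth inhibition.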
Assays:
Assay in all cases: NCI-60 cell line screen, 48 h
HT29 colon = tested on: HT29 colon
BT-549 breast = tested on: BT-549 breast
DU-145 prostate = tested on: DU-145 prostate
RXF 393 renal = tested on: RXF 393 renal
SNB-19 CNS = tested on: SNB-19 CNS
HS 578T breast = tested on: HS 578T breast
UACC-62 melanoma = tested on: UACC-62 melanoma
CCRF-CEM leukemia = tested on: CCRF-CEM leukemia
UACC-257 melanoma = tested on: UACC-257 melanoma
M19-MEL melanoma = tested on: M19-MEL melanoma

Compound | TGI (HT29 colon) [µM] | TGI (BT-549 breast) [µM] | TGI (DU-145 prostate) [µM] | TGI (RXF 393 renal) [µM] | TGI (SNB-19 CNS) [µM] | TGI (HS 578T breast) [µM] | TGI (UACC-62 melanoma) [µM] | TGI (CCRF-CEM leukemia) [µM] | TGI (UACC-257 melanoma) [µM] | TGI (M19-MEL melanoma) [µM] | GI50 (HT29 colon) [µM] | GI50 (BT-549 breast) [µM] | GI50 (DU-145 prostate) [µM] | GI50 (RXF 393 renal) [µM] | GI50 (HS 578T breast) [µM] | GI50 (UACC-257 melanoma) [µM] | GI50 (UACC-62 melanoma) [µM] | GI50 (CCRF-CEM leukemia) [µM]
CC[C@]12C=CCN3CC[C@@]4(c5cc(Br)c(OC)cc5N(C)[C@H]4[C@@](O)(C(=O)NC(Cc4c[nH]c5ccccc45)C(=O)OC)[C@@H]1O)[C@@H]32 (stereo partly drawn) | > 100 | > 100 | > 100 | 98.6 | > 100 | > 100 | > 100 | > 100 |  |  |  |  |  |  |  |  |  | 
Cc1cc(C)n(-c2nc(C)c(CCO)c(=O)[nH]2)n1 | > 100 | > 100 | > 100 | > 100 | > 100 | > 100 | > 100 | > 100 | > 100 |  |  |  |  |  |  |  |  | 
COc1cccc(CCNc2c(C#N)c3n(c4ccccc4[n+]3C)c3ncccc23)c1 | 3.14 | 49.5 | 11.3 | 38.2 | 18.8 | 15 | > 59.4 |  | 46.3 |  |  |  |  |  |  |  |  | 
COc1ccc([C@H]2CC3C(=O)N(c4ccc(OC)cc4)C(=O)C3c3[nH]c4ccccc4c32)cc1 (stereo partly drawn) |  |  |  |  | > 100 |  | > 100 | > 100 | > 100 | > 100 |  |  |  |  |  |  |  | 
O=S(=O)(c1ccccc1)c1ccc(-c2nc(-c3ccc4c(c3)Sc3ccccc3S4)cs2)cc1 | > 100 | 91.7 | > 100 | 35.3 | > 100 | > 100 | > 100 | > 100 | > 100 |  |  |  |  |  |  |  |  | 
CC(=O)NC(C)(C)C1CCC(C)CC1 (stereo not drawn) | > 100 | > 100 | > 100 | > 100 | > 100 | > 100 | > 100 | > 100 | > 100 |  |  |  |  |  |  |  |  | 
CC1CN(CCO)CCN1c1ccccc1 (stereo not drawn) | > 100 | > 100 | > 100 | > 100 | > 100 | > 100 | > 100 |  | > 100 |  |  |  |  |  |  |  |  | 
O=c1/c(=C/c2ccccn2)sc2nc3cc4c(cc3n12)OCCO4 | > 100 | > 100 | > 100 | > 100 | > 100 | > 100 | > 100 | > 100 | > 100 |  |  |  |  |  |  |  |  | 
COc1ccc2c3/c(=C\c4ccc(N(C)C)cc4)c4ccccc4n3[n+](C)c2c1 |  | 2.7 | 1.81 | 1.04 |  |  | 0.224 | 2.09 | 0.424 |  | 0.123 | 0.129 | 0.236 | 0.0603 | 0.162 | 0.0346 | < 0.0275 | 0.051
COc1ccc(N2C(=O)/C(=C/c3ccc(N(CCC#N)CCC#N)cc3)N=C2c2ccccc2)cc1 | > 100 | > 100 | > 100 | > 100 | > 100 | > 100 | > 100 |  | > 100 |  |  |  |  |  |  |  |  | 
Cc1cc(C)c2c(n1)S(=O)(=O)N(CCCN1CCN(c3cccc(Cl)c3)CC1)/C(=C(\O)c1ccc(Br)cc1)C2=O | 98.8 | > 100 | > 100 | 83.7 | 98.4 | > 100 | > 100 | > 100 | 45.3 |  |  |  |  |  |  |  |  | 
O=c1c2c3c(sc2nc2n1NC=NN2)CCCC3 | 38.9 | 31.8 | > 90.4 | > 61.9 | > 71.5 | 52.7 | 35.8 | 4.88 | 41.9 |  |  |  |  |  |  |  |  | 
CCOC(=O)c1nc2cc(Cl)ccc2[nH]c1=O | > 100 | > 100 | > 100 | > 100 | > 100 | > 100 | > 100 | > 100 | > 100 |  |  |  |  |  |  |  |  | 
COc1ccc(-c2nnc3n(C)c4ccccc4n3c2=O)cc1 | > 100 | > 100 | > 100 | 82.9 | > 100 | > 100 |  | > 100 | > 100 |  |  |  |  |  |  |  |  | 
COc1ccccc1C(=O)OCC1CCCN2CCCCC12 (stereo not drawn) | 32.2 | 54.6 | > 100 | 73.6 | > 100 | > 100 | > 100 | 46.1 | > 100 |  |  |  |  |  |  |  |  | 
O=C(NC1=C(Cl)C(=O)c2ccccc2C1=O)C(=O)C(C(=O)c1ccc2ccccc2c1)C1OC(=O)c2ccccc21 (stereo not drawn) | 17.7 | 17.3 | 23.9 | 12.8 | 19 | 45.2 | 4.31 | 26.9 | 5.48 | 0.856 |  |  |  |  |  |  |  | 
CN(C)CC1CCC/C(=C\c2ccc(OC(=O)/C=C/c3ccc(Cl)cc3)cc2)C1=O (stereo not drawn) | 7.12 | 14.2 | 25.5 | 4.08 | 13.9 | 24.6 | 19.1 | 3.39 | 32.6 |  |  |  |  |  |  |  |  | 
C(=C/c1nnnn1-c1ccccc1)/Nc1ccccc1 | > 100 | 53.9 | > 100 | > 100 | 96.8 | > 100 | > 100 | > 100 | > 100 |  |  |  |  |  |  |  |  | 
C=C1CCOC2(C(O)C(C)(O)CO)NC(=O)C1(O)NC2=O (stereo not drawn) | > 100 | > 100 | > 100 | > 100 | > 100 | > 100 | > 100 | > 100 | > 100 |  |  |  |  |  |  |  |  | 
Cc1cc(O)c2c(c1)C(C1c3cccc(O)c3C(=O)c3c(O)cc(C)cc31)c1cccc(O)c1C2=O (stereo not drawn) | 7.62 | 0.94 | 18.6 | 0.861 | 17.1 | 33.3 |  | 10.1 | 1.25 |  |  |  |  |  |  |  |  | 
CCC(Nc1ncnc2nc[nH]c12)C(=O)O (stereo not drawn) | > 100 | > 100 | > 100 | > 100 | > 100 | > 100 | > 100 | > 100 | > 100 |  |  |  |  |  |  |  |  | 
N#CC1=C(N)N(/N=C/c2ccco2)C(c2ccco2)C1(C#N)C#N (stereo not drawn) | 32.2 | 34.9 | 32.1 | 25.8 | 39.2 | 97.2 | 42.4 | 19.2 | 33.2 |  |  |  |  |  |  |  |  | 
CN(C)S(=O)(=O)c1nc(Cl)c2[nH]cnc2n1 | > 100 | > 100 | > 100 | > 100 | > 100 | > 100 | > 100 | > 100 | > 100 |  |  |  |  |  |  |  |  | 
